Patent US5658906A, “Cysteine protease and serine protease inhibitors” (Cephalon, Inc., priority 1996, dated 1997)

Target: T1, Calpain I (Homo sapiens, UniProt P07384)
T1 construct: Calpain I was purified from human red blood cells; from tissue; host or cells: human red blood cells (packed, outdated)
T1 sequence (P07384 1-714): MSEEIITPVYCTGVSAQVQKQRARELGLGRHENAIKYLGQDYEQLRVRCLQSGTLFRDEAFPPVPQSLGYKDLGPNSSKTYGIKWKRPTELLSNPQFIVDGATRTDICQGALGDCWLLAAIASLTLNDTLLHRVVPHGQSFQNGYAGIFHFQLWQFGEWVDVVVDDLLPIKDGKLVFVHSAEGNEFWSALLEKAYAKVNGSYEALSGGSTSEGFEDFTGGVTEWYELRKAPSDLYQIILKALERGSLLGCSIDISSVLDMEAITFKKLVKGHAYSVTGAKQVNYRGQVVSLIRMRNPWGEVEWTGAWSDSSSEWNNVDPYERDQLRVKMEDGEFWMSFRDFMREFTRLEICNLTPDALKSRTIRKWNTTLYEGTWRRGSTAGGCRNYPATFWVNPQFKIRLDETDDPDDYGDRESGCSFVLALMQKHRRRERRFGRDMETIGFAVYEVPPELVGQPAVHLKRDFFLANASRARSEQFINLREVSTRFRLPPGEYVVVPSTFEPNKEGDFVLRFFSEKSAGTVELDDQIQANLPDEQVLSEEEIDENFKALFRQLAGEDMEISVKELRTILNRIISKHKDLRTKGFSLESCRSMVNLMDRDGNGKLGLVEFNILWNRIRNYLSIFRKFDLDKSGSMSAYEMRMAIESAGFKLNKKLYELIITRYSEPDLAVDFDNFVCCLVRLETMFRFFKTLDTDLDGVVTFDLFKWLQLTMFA
T1 sequence (P04632 1-268 partner): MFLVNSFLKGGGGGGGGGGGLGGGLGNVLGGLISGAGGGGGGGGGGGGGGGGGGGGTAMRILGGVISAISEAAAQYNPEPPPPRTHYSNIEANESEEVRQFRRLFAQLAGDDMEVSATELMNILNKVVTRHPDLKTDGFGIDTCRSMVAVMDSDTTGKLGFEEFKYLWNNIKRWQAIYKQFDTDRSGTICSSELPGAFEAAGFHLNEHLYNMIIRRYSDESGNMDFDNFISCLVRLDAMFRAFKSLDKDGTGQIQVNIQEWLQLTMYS
Test: Inhibition and rate of inactivation of calpain I (Succ-Leu-Tyr-MNA hydrolysis)
Assay type: biochemical
Conditions: mean of three or more independent analyses, corrected for substrate, k2 = kapp(1+[S]/Km), read-out: k2 (second order rate constant of inactivation), A = Calpain I

Row | kinact/KI [M⁻¹ s⁻¹] | SMILES
1 | 150000 | CC(C)C[C@H](NC(=O)OCc1ccccc1)C(=O)N[C@@H](Cc1ccccc1)C(=O)COn1nnc2ccccc21 [Example 3, 1-[N-[N-Benzyloxycarbonyl-L-leucyl]-3S-4-phenyl-3-amino-2-oxobutyloxy]benzotriazole]
2 | 63000 | CC[C@H](NC(=O)[C@H](CC(C)C)NC(=O)OCc1ccccc1)C(=O)COn1nnc2ccccc21 [Example 5, 1-[N-[N-Benzyloxycarbonyl-L-leucyl]-3S-3-amino-2-oxopentyloxy] benzotriazole]
3 | 184000 | CC(C)C[C@H](NC(=O)OCc1ccccc1)C(=O)N[C@@H](Cc1ccccc1)C(=O)COn1nnc2cccnc21 [Example 6, 3-[N-[N-Benzyloxycarbonyl-L-leucyl]-3S-4-phenyl-3-amino-2-oxobutyloxy]-3H-triazolo[4,5-b]pyridine]
4 | 122000 | CC(C)C[C@H](NC(=O)OCc1ccccc1)C(=O)N[C@@H](Cc1ccccc1)C(=O)COn1nnc2ccccc2c1=O [Example 28, 1-[N-[N-Benzyloxycarbonyl-L-leucyl]-3S-4-phenyl-3-amino-2-oxobutyloxy]-3-benzotriazin-4-one]
